Assay results as given in patent publication US11879137B2, “Treatment of type 1 diabetes and autoimmune diseases or disorders” (THE CHILDREN'S MEDICAL CENTER CORPORATION, priority 2017, dated 2024).

Test system: PD-L1 on CD34+ cells
Assay: 7-day culture of CD34+ cells with PGE2 and hematopoietic cytokines (STFIA medium), PD-L1+CD34+ by FACS
Format: cell-based, human
Details: for increase in the percentage of PD-L1+CD34+ cells: 7 days, STFIA medium, PGE2 10 μM
Experimental: FIGS. 18A-18J show effects of human PGE2-modulated and cytokine-treated CD34^+ cells. […] (FIG. 18C) Effect of PGE2 pulsing on CD34^+ cells cultured for 0, 24 h, 72 h and 6 days on PD-L1 expression on CD34^+ cells. (FIG. 18D-18E) Bar graphs showing an increase in the number of PD-L1^+CD34^+ cells and fold increase in cell number after 7 days of culture with PGE2 supplemented with cytokines. (FIG. 18F-18G) Upregulation of PD-L1 expression following culture with PGE2 (shown as percentage) on CD34^+ cells was not altered by the freeze/thawing process. (FIG. 18H) PGE2-modulated CD34^+ cells abrogate the IFN-γ autoimmune response to insulin-associated 2 (I-A2) autoantigen in vitro, as measured via the quantification of IFN-γ-producing cells in an Elispot assay; […]. (FIG. 18I) PGE2-modulated CD34^+ cells and PGE2-modulated CD34^+ cells cultured for 7 days in STFIA media abrogate the IFN-γ autoimmune response towards insulin-associated 2 (I-A2) autoantigen in vitro, as measured via the quantification of IFN-γ-producing cells in an Elispot assay, even when added at low dose. (FIG. 18J) PGE2-modulated CD34^+ cells abrogate the anti-CD3/CD28-stimulated PBMC response in vitro as measured via the quantification of IFN-γ-producing cells in an Elispot assay. […] Abbreviations: SCF, stem cell factor; TPO, thrombopoietin; hFGF-1, human fibroblast growth factor 1; IGFBP2, insulin-like growth factor-binding protein 2; Angptl3, angiopoietin-like 3; PBMCs, peripheral blood mononuclear cells.
Pharmacological modulation of human CD34+ cells. […] Data were analyzed using FlowJo software version 8.7.3 (Treestar, Ashland, OR). […]
PGE2 highly augments PD-L1 expression in human HSPCs when supplemented with hematopoietic cytokine. […] PD-L1+ HSPCs were then quantified by FACS analysis at different time points post-culture. […]

## CCCCC[C@H](O)/C=C/[C@H]1[C@H](O)CC(=O)[C@@H]1C/C=C\CCCC(=O)O [PGE2, prostaglandin E2]
HSPCs from T1D
  increase in the percentage of PD-L1+CD34+ cells: ~5 fold
Fresh vs frozen HSPCs, 7 days STFIA media pulsed with PGE2
  PD-L1 expression pre- and post-cryopreservation: Sustained and conserved
Healthy control patients
  increase in the percentage of PD-L1+CD34+ cells: ~2 fold
